Reference: patent US9637469B2, “Pyridine derivative” (Teijin Pharma Limited, priority 2012, dated 2017)

These compounds were tested against T1, human URAT1 (Homo sapiens, UniProt Q96S37) (assay: Test for inhibition of uric acid transport using human URAT1-expressing cells). Settings: HEK 293 cells expressing human URAT1; 14C-labeled uric acid 25 μM; uptake 37° C. for 5 min.
T1 construct: Full-length cDNA of human URAT1 (hURAT1)
T1 sequence (Q96S37 1-553): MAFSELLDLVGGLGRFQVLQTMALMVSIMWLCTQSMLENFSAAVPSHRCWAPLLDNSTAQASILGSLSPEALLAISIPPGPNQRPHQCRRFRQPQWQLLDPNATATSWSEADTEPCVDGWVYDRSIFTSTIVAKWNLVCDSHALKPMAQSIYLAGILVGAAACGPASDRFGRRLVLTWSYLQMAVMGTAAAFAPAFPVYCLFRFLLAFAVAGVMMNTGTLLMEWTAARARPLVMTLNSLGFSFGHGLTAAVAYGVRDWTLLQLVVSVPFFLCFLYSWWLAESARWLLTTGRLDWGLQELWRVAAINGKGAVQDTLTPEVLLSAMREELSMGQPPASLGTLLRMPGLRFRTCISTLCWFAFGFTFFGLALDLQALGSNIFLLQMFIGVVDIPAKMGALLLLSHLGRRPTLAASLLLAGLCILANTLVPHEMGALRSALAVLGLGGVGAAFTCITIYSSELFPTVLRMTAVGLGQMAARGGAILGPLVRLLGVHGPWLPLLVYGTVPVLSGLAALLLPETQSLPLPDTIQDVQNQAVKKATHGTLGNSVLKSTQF
Type: cell-based
Experimental: (1) Preparation of the Test Compound
The test compound was dissolved in DMSO (produced by Sigma) to a concentration of 20 mM and was subsequently used by diluting to desired concentrations.
(2) Test for Inhibition of Uric Acid Transport Using Human URAT1-Expressing Cells;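 note: three stars up to 0.2 µM two stars 0.2-2 µM one star 2-20 µM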
Full-length cDNA of human URAT1 (hURAT1) (produced by OriGene Technologies, Inc., NCBI Reference Sequence: NM 144585) was subcloned into an expression vector, pCMV6-Kan/Neo (produced by OriGene Technologies, Inc.), and hURAT1 gene was transfected into human embryonic kidney-derived cells (HEK 293 cells) by liposome method using Lipofectamine 2000 (produced by Invitrogen Corporation), whereupon HEK 293 cells expressing human URAT1 gene were screened by its Geneticin resistance. By a method similar to the following method, functional expression of human URAT1 gene was confirmed by using transport of ^14C-labeled uric acid into the cells as an index.
The HEK 293 cells expressing human URAT1 were seeded in a 24-well cell culture dish to a density of 3×10^5 cells/mL/well and were cultured in Dulbecco's modified Eagle's medium (D-MEM medium) containing 10% fetal bovine serum at 37° C. for 2 days. Thereafter, the following test for inhibition of uric acid transport was performed.
After the medium was removed by aspiration from each well, the medium was replaced with a solution obtained by substituting NaCl in Hank's Balanced Salt Solution (HBSS) with Na gluconate (hereinafter, HBSS/Na-gluconate) and the cells were preincubated at 37° C. for about 10 minutes. HBSS/Na-gluconate was removed by aspiration and a ^14C-uric acid solution that was warmed at 37° C. in advance containing various concentrations of the Example compound described in (1) and a radioactive ligand (^14C-labeled uric acid; final concentration 25 μM) was added and an uptake reaction was carried out by incubating at 37° C. for 5 min. After the incubation, ^14C-labeled uric acid solution was removed by aspiration and the cells were washed three times with ice-cold HBSS. The HEK 293 cells expressing human URAT1 were lysed in 0.2 mol/L aqueous NaOH (hereafter, the cell sample) and the cell samples were collected. The cell sample and a liquid scintillation liquid, ULTIMA GOLD (produced by PerkinElmer, Inc.) were mixed and the radioactivity was measured by a liquid scintillation counter (Beckman Coulter, Inc.).
The uric acid transport rate of the Example compound at each concentration (% of control uptake) was calculated relative to the radioactivity (radioactivity in human URAT1 expressing HEK 293 cells without addition of the Example compound (DMSO addition)) showing URAT1-specific uric acid transport as 100%, and the concentration (IC50) of the Example compound at which the uric acid transport rate is inhibited by 50% was determined. In addition, the symbols (*, **, and ***) in the table represent the following inhibitory activity values: • IC50≦_ 0.2 μM: *** • 0.2 μM<IC50≦2 μM: ** • 2 μM<IC50≦20 μM: *
`Cc1nc(-c2cccnc2)n(Cc2ccccc2Br)c1C(=O)O` [Compound A54, 1-(2-bromobenzyl)-4-methyl-2-(pyridin-3-yl)-1H-imidazole-5-carboxylic acid] was tested, and the “Inhibitory Activity (IC50 of uric acid transport inhibition)” value (from here on “Inhibitory Activity”) was “* *”. With `COc1nc(-c2cccnc2)n(Cc2cc(Cl)ccc2Cl)c1C(=O)O` [Compound A96, 1-(2,5-dichlorobenzyl)-4-methoxy-2-(pyridin-3-yl)-1H-imidazole-5-carboxylic acid] the “Inhibitory Activity” value was “* * *”. In the case of `Cc1nc(-c2cncc(F)c2)n(Cc2sc(Cl)cc2Cl)c1C(=O)O` [Compound A228, 1-((2,4-dichlorothiophen-5-yl)methyl)-2-(5-fluoropyridin-3-yl)-4-methyl-1H-imidazole-5-carboxylic acid], the “Inhibitory Activity” value is reported as “* *”. With `O=C(O)c1c(C2=CCCC2)nc(-c2cccnc2)n1Cc1cc(Cl)ccc1Cl` [Compound A103, 4-(1-cyclopenten-1-yl)-1-(2,5-dichlorobenzyl)-2-(pyridin-3-yl)-1H-imidazole-5-carboxylic acid] the “Inhibitory Activity” value was “* *”. `Cc1ccc(Cn2c(-c3cccnc3)nc(Cl)c2C(=O)O)c2ccccc12` [Compound A23, 4-chloro-1-((4-methylnaphthalen-1-yl)methyl)-2-(pyridin-3-yl)-1H-imidazole-5-carboxylic acid] was tested, and the “Inhibitory Activity” value was “* *”. In the case of `O=C(O)c1c(C2CC2)nc(-c2cncc(F)c2)n1Cc1cccc2ccccc12` [Compound A153, 4-cyclopropyl-2-(5-fluoropyridin-3-yl)-1-(naphthalen-1-ylmethyl)-1H-imidazole-5-carboxylic acid], the “Inhibitory Activity” value is reported as “* *”. In the case of `O=C(O)c1c(Cn2cccn2)nc(-c2cncc(Cl)c2)n1Cc1cc(Cl)ccc1Cl` [Compound A200, 4-((1H-pyrazol-1-yl)methyl)-2-(5-chloropyridin-3-yl)-1-(2,5-dichlorobenzyl)-1H-imidazole-5-carboxylic acid], the “Inhibitory Activity” value is reported as “* * *”. In the case of `O=C(O)c1ccc(-c2cncc(F)c2)n1Cc1cccc2ccsc12` [Compound B22, 1-(benzo[b]thiophen-7-ylmethyl)-2-(5-fluoropyridin-3-yl)-1H-pyrrole-5-carboxylic acid], the “Inhibitory Activity” value is reported as “* * *”. In the case of `O=C(O)c1c(Cl)nc(-c2cncc(Cl)c2)n1Cc1cc(Cl)ccc1Cl` [Compound A220, 4-chloro-2-(5-chloropyridine-3-yl)-1-(2,5-dichlorobenzyl)-1H-imidazole-5-carboxylic acid], the “Inhibitory Activity” value is reported as “* * *”. In the case of `O=C(O)c1ccc(-c2cccnc2)n1Cc1cccc2cccc(Br)c12` [Compound B6, 1-((8-bromonaphthalen-1-yl)methyl)-2-(pyridin-3-yl)-1H-pyrrole-5-carboxylic acid], the “Inhibitory Activity” value is reported as “* * *”. With `Cc1nc(Oc2cncc(Cl)c2)n(Cc2cc(Cl)ccc2Cl)c1C(=O)O` [Compound A250, 2-((5-chloropyridin-3-yl)oxy)-1-(2,5-dichlorobenzyl)-4-methyl-1H-imidazole-5-carboxylic acid] the “Inhibitory Activity” value was “* * *”. With `Cc1nc(-c2cccnc2)n(Cc2cc(F)cc3ccsc23)c1C(=O)O` [Compound A85, 1-((5-fluorobenzo[b]thiophen-7-yl)methyl)-4-methyl-2-(pyridin-3-yl)-1H-imidazole-5-carboxylic acid] the “Inhibitory Activity” value was “* * *”. For `O=C(O)c1c(-c2cccnc2)nc(-c2cccnc2)n1Cc1cc(Cl)ccc1Cl` [Compound A94, 1-(2,5-dichlorobenzyl)-2,4-di(pyridin-3-yl)-1H-imidazole-5-carboxylic acid], the “Inhibitory Activity” value was “* *”. In the case of `Cc1nc(-c2cncc(OCC3CCCCC3)c2)n(Cc2cc(Cl)ccc2Cl)c1C(=O)O` [Compound A189, 2-(5-(cyclohexylmethoxy)pyridin-3-yl)-1-(2,5-dichlorobenzyl)-4-methyl-1H-imidazole-5-carboxylic acid], the “Inhibitory Activity” value is reported as “* *”. `O=C(O)c1c(CN2CCCC2)nc(-c2cncc(Cl)c2)n1Cc1cc(Cl)ccc1Cl` [Compound A194, 2-(5-chloropyridin-3-yl)-1-(2,5-dichlorobenzyl)-4-(pyrrolidin-1-ylmethyl)-1H-imidazole-5-carboxylic acid] was tested, and the “Inhibitory Activity” value was “* * *”. In the case of `Cc1cncc(-c2nc(C)c(C(=O)O)n2Cc2sc(Cl)cc2Cl)c1` [Compound A230, 1-((2,4-dichlorothiophen-5-yl)methyl)-4-methyl-2-(5-methylpyridin-3-yl)-1H-imidazole-5-carboxylic acid], the “Inhibitory Activity” value is reported as “* *”. In the case of `O=C(O)c1c(C2CC2)nc(-c2cccnc2)n1Cc1csc2cccc(Br)c12` [Compound A34, 1-((4-bromobenzo[b]thiophen-3-yl)methyl)-4-cyclopropyl-2-(pyridin-3-yl)-1H-imidazole-5-carboxylic acid], the “Inhibitory Activity” value is reported as “* *”. `CCOC(=O)c1c(C)nc(-c2cccnc2)n1Cc1cccc2ccccc12` [Compound A3, ethyl 4-methyl-1-(naphthalen-1-ylmethyl)-2-(pyridin-3-yl)-1H-imidazole-5-carboxylate] was tested, and the “Inhibitory Activity” value was “* *”. In the case of `Cc1nc(-c2cncc(Cl)c2)n(Cc2cc(Cl)sc2Cl)c1C(=O)O` [Compound A226], the “Inhibitory Activity” value is reported as “* * *”. In the case of `O=C(O)c1ccc(-c2cncc(Cl)c2)n1Cc1cccc2ccsc12` [Compound B23, 1-(benzo[b]thiophen-7-ylmethyl)-2-(5-chloropyridin-3-yl)-1H-pyrrole-5-carboxylic acid], the “Inhibitory Activity” value is reported as “* * *”. For `O=C(O)c1c(C2CC2)nc(-c2cncc(F)c2)n1Cc1cc(Cl)ccc1Cl` [Compound A155, 4-cyclopropyl-1-(2,5-dichlorobenzyl)-2-(5-fluoropyridin-3-yl)-1H-imidazole-5-carboxylic acid], the “Inhibitory Activity” value was “* * *”. For `O=C(O)c1c(Cl)nc(-c2cccnc2)n1Cc1cccc2ccccc12` [Compound A9, 4-chloro-1-(napthalen-1-ylmethyl)-2-(pyridin-3-yl)-1H-imidazole-5-carboxylic acid], the “Inhibitory Activity” value was “* *”.

Same assay, conditions: HEK 293 cells expressing human URAT1; 14C-labeled uric acid 25 μM; uptake 37° C. for 5 min; read-out: Inhibitory Activity (IC50 of uric acid transport inhibition)
`Cc1nc(-c2cccnc2)n(Cc2cccc3ccsc23)c1C(=O)NS(=O)(=O)C1CC1` [Compound A116] showed an IC50 of 2 to 20 µM. For `Cc1nc(-c2cncc([S+](C)(=O)[O-])c2)n(Cc2cc(Cl)ccc2Cl)c1C(=O)O` [Compound A165], the IC50 was 2 to 20 µM. `Cc1nc(-c2cnc3ccccc3c2)n(Cc2cccc3ccccc23)c1C(=O)O` [Compound A66] gave an IC50 of 2 to 20 µM. `Cc1nc(-c2cccnc2)n(C(C)c2cc(Cl)ccc2Cl)c1C(=O)O` (centres unmarked) [Compound A87] was tested, and the IC50 was 2 to 20 µM. `Cc1nc(-c2ccccn2)n(Cc2cccc3ccccc23)c1C(=O)O` [Compound A243] was tested, and the IC50 was 2 to 20 µM. `CC(C)(Sc1ncc(-c2cncc(F)c2)n1Cc1cc(Cl)ccc1Cl)C(=O)O` [Compound A265] was tested, and the IC50 was 2 to 20 µM. With `O=C(O)/C=C/c1cnc(-c2cccnc2)n1Cc1cc(Cl)ccc1Cl` [Compound A260] the IC50 was 2 to 20 µM. In the case of `Cc1nc(-c2cccnc2)n(Cc2ccc(F)cc2)c1C(=O)O` [Compound A50], the IC50 is reported as 2 to 20 µM. `Cc1nc(-c2ccnc(Cl)c2)n(Cc2cccc3ccccc23)c1C(=O)O` [Compound A242] showed an IC50 of 2 to 20 µM. `Cc1nc(-c2cccnc2)n(Cc2ccc(F)cc2Cl)c1C(=O)O` [Compound A73] gave an IC50 of 2 to 20 µM.
